Data as given in patent US20250213587A1, “ITK INHIBITORS FOR INCREASING TH1 CELL ACTIVITY” (Corvus Pharmaceuticals, Inc., priority 2022, published 2025).

Experiments:
Fyn = Fyn (Homo sapiens, UniProt P06241); assay: Human kinome profiling at 1.0 μM, Fyn; type: biochemical; settings: read-out: percent control, Fyn
ZAP-70 = ZAP-70 (Homo sapiens, UniProt P43403); assay: Human kinome profiling at 1.0 μM, ZAP-70; type: biochemical; settings: read-out: percent control, ZAP-70
ITK Cys-442 = target: T1, ITK Cys-442 (Homo sapiens, UniProt Q08881); assay: Mass spectrometry of chymotryptic digest of inhibited ITK; type: binding; settings: LC MS/MS, 5-fold molar excess
T1 construct: The protein construct comprised amino acids 2 to 620 of ITK; purchased Cama Bioscience (so in the source)
Method: ITK was obtained as a glutathione S transferase (GST) fusion protein from Cama Bioscience (Product Number 08 081, Lot 13CBS 0356K). The protein was supplied at 586 μg/mL (5.9 μM ITK) in 50 mM TRIS, 150 mM NaCl, 0.05% Brij35, 1 mM dithiothreitol, and 10% glycerol at pH 7.5. The protein construct comprised amino acids 2 to 620 of ITK and is fused to GST at the N terminus of ITK (ITK GST). To prepare the samples for mass spectral analysis, a 2 μM sample of the ITK GST fusion protein was incubated with a 5-fold molar excess of CPI 818 (10 μM). A control, untreated sample of ITK GST was prepared in parallel. […] After the incubation phase, samples were frozen and stored at −80° C. Mass spectral analysis was conducted in collaboration with the Stanford University mass spectrometry facility. The control, untreated ITK GST fusion protein, and the CPI 818 inhibited sample were subjected to chymotrypsin digestion and then analyzed by liquid chromatography coupled with tandem mass spectrometry (LC MS/MS). […] Ions electrosprayed from this column were detected using an Orbitrap Fusion mass spectrometer (Thermo Scientific, San Jose, CA) operated in a data dependent fashion using both ETD and HCD fragmentation to improve detection efficiency of modified peptides. […] Peptides were constrained to 12 ppm mass accuracy for precursor ions, and 0.4 Da mass accuracies for fragment ions detected in the ion trap. […]

human kinome = assay: Human kinome profiling at 1.0 μM; type: biochemical
Cys442Ala ITK = Cys442Ala ITK (Homo sapiens, UniProt Q08881, C442A); assay: Inhibition of Cys442Ala ITK mutant; type: biochemical; settings: similar conditions
Sequence of Cys442Ala ITK (Q08881 whole entry C442A): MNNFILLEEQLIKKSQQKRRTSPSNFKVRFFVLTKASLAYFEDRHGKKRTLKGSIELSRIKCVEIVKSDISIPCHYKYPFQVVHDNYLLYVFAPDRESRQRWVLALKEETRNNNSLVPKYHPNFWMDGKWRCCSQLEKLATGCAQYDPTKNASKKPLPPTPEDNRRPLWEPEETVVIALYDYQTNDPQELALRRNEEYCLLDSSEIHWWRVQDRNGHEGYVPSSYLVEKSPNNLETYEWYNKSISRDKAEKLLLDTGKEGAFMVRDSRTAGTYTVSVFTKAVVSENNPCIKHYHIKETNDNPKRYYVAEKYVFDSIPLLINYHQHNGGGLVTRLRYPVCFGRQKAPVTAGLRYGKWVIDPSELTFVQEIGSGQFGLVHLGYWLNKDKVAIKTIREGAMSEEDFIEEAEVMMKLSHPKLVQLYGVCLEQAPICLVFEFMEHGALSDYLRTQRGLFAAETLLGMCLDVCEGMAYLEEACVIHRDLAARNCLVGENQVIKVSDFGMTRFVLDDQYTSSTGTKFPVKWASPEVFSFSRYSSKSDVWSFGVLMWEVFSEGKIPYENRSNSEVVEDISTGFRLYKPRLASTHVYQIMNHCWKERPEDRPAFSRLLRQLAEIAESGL
Method: Two biochemical assays of kinase activity were employed. […] In the Lanthascreen assay each kinase (1.0 nM) was incubated with compound for 120 minutes at 22° C. in a buffer composed of 50 mM HEPES (pH 7.5), 10 mM MgCl2, 1 mM EGTA, and 0.01% Brij 35. The kinase reaction was initiated by the addition of ATP (50 μM final) and fluorescein-poly-Glu-Tyr peptide (200 nM final). The reaction was quenched after 60 minutes at 22° C., and phospho-peptide product detected by the addition of EDTA (10 mM final) and terbium PY20 antibody (2 nM final). The phospho-peptide product was measured by time-resolved fluorescence resonance energy transfer (TR FRET) between the terbium of the antibody and fluorescein of the phospho-peptide using an EnVision plate reader (PerkinElmer, Waltham, MA) equipped to detect the TR-FRET signal (excitation 320 nm, dual emission at 495 nm and 520 nm). All reagents including recombinant human kinases, fluorescein-poly-Glu-Tyr peptide, terbium PY20 antibody, and kinase buffer A were purchased from Invitrogen.
Inhibition of kinase activity was measured by construction of a concentration response curve of the inhibitor. […] The response reading was normalized according to equation 1 and plotted against the Log base 10 transformed values of the molar concentration of inhibitor. The IC50 value was obtained by fitting equation 2 to the data. […]

S6 phosphorylation = assay: pS6 flow cytometry after CD3/28 crosslinking; type: cell-based; settings: Homo sapiens, mean of three donors
Method: PBMCs were pelleted (400×g at 4° C. for 5 minutes) and resuspended in RPMI+10% heat-inactivated fetal bovine serum (FBS) at 14.3×10^6 cells/mL; 70 μL (1×10^6 cells) were plated in a 96 well U bottom plate and incubated at 37° C. for 1 hour. […] CD3-biotin and CD28-biotin were prepared together at 10 μg/mL each, which is 10× the final concentration; 10 μL antibodies were added to the cells and incubated at 37° C. for 15 minutes. Avidin was prepared at 500 μg/mL, which is 10× the final concentration; 10 μL avidin were added to the cells and incubated at 37° C. for 5 minutes to induce TCR crosslinking. A total volume of 100 μL cells were transferred to 200 μL warm 2.4% paraformaldehyde (PFA) in deep well blocks. Pipetting was performed using a liquidator 96 to add reagents to the entire plate with uniform timing. Cells were fixed with PFA at 37° C. for 10 minutes. Cells were pelleted (1000× g for 5 minutes), and the plate was aspirated leaving approximately 100 μL residual volume. The plate was then vigorously vortexed for 10 seconds, and 1 mL −20° C. methanol was added to each well. Cells were stored at […] for approximately 1 month. […] Inhibition was measured by construction of a concentration response curve of the Log base 10 transformed values of the molar concentration of inhibitor. […]

ITK = target: T2, ITK (Homo sapiens, UniProt Q08881); assay: ITK occupancy in patients at steady state; type: in vivo
T2 sequence (Q08881 1-620): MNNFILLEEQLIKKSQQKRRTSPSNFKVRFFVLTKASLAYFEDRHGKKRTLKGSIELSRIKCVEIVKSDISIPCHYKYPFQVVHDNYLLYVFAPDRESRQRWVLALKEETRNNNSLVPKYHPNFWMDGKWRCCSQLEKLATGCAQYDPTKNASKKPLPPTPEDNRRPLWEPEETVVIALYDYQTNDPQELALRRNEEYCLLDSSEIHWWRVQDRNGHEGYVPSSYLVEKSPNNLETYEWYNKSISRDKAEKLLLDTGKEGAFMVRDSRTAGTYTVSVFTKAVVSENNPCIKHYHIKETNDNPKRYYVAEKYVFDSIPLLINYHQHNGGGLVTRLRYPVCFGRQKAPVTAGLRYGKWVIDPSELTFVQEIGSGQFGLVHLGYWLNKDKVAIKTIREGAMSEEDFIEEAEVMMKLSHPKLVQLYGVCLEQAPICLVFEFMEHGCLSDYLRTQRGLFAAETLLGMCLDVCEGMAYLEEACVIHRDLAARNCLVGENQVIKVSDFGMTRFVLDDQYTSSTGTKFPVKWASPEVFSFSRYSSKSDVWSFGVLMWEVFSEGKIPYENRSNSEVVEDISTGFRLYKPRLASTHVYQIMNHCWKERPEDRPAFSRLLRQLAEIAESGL

Lck = Lck (Homo sapiens, UniProt P06239); assay: Human kinome profiling at 1.0 μM, Lck; type: biochemical; settings: read-out: percent control, Lck
Sequence of Lck (P06239 whole entry): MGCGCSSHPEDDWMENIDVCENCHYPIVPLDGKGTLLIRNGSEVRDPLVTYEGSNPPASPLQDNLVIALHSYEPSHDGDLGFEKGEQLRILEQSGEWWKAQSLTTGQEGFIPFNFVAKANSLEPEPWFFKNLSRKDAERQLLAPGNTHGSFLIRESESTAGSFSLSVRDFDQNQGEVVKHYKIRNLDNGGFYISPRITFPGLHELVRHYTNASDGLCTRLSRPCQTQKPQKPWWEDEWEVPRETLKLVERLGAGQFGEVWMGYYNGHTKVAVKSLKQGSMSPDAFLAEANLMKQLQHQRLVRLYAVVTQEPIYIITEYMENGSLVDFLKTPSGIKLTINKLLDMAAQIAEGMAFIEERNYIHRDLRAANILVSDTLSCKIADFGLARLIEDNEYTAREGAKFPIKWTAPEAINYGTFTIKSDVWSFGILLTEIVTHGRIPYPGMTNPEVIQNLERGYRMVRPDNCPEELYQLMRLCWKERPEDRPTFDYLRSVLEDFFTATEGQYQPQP

human CD4 T cells = assay: T cell exhaustion markers; type: cell-based

Sequence of Fyn (P06241 whole entry): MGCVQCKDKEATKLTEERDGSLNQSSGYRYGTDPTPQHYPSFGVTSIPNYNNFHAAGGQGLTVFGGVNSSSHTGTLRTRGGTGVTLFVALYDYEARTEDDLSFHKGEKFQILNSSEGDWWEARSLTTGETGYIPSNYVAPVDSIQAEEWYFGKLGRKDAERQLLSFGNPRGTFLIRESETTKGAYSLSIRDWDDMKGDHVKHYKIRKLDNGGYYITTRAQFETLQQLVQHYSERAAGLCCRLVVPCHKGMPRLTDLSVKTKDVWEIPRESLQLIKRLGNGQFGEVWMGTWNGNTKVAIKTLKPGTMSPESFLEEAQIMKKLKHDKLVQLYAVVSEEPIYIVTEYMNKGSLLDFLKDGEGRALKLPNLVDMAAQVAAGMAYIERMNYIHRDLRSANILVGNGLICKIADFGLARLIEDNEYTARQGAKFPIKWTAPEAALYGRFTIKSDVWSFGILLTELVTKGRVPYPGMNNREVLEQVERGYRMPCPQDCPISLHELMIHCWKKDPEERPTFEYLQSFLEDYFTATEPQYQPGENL
Sequence of ZAP-70 (P43403 whole entry): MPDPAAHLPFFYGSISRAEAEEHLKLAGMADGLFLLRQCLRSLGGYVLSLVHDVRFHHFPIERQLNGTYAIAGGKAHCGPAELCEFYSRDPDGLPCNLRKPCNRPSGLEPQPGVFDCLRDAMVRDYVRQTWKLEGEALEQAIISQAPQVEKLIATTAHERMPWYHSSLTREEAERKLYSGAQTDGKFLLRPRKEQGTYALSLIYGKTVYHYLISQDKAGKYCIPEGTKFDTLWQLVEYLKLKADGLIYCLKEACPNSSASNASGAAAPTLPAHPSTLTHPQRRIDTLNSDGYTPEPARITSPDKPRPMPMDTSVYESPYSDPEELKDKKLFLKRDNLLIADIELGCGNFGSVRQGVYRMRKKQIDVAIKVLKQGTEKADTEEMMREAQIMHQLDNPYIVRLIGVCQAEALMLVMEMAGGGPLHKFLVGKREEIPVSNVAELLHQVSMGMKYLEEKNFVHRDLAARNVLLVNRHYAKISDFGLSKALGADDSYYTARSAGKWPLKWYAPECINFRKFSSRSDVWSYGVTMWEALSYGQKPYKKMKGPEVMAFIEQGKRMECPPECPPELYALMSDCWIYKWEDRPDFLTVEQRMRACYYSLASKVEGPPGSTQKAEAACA

## C=CC(=O)N1CCCN(C(=O)c2cc(Sc3cnc(NC(=O)C4CC4)s3)c(C)cc2OC)C[C@H]1C [CPI-818]
Fyn
  remaining activity at 1 µM: 99%
ZAP-70
  remaining activity at 1 µM: 59%
ITK Cys-442
  covalent modification of ITK peptides: covalently labeling Cys-442
Human kinome
  number of kinases inhibited ≥65%: eight
Cys442Ala ITK
  change of IC50 at Cys442Ala ITK compared to wild-type: > 100 fold
S6 phosphorylation
  IC50: 96 nM
ITK; human, 400 mg BID and 600 mg BID, read-out: steady state trough ITK occupancy
  receptor occupancy at 400 mg: ~90%
ITK; patients, 100-600 mg BID
  steady state peak ITK occupancy, mean: at least 90%
Lck
  remaining activity at 1 µM: 89%
Human CD4 T cells
  T cell exhaustion: granzyme B and IFNγ levels: reverses T cell exhaustion
Human CD4 T cells; various concentrations
  LAG3, TIGIT and PD-1: downregulate biomarkers of T cell exhaustion
